Source: PMC7461116, “Synthesis, Anticonvulsant and Antinociceptive Activity of New Hybrid Compounds: Derivatives of 3-(3-Methylthiophen-2-yl)-pyrrolidine-2,5-dione” (International Journal of Molecular Sciences, 2020)
Where a name gives a salt, the structure may show the parent alone.

What was measured:
[1] = test system: motor impairment on rotarod; experiment: Rotarod test (acute neurotoxicity, NT); format: in vivo; details: ip, 100 mg/kg, 0.5 h
Protocol: In this test mice were trained to balance on an accelerating rotarod that rotated at 10 rotations per minute (Rotarod apparatus, May Commat RR0711, Turkey; rod diameter: 3 cm). During the training session, the animals were placed on a rotating rod for 3 min with an unlimited number of trials. Proper experiment was conducted 24 h after the training trial. On the test day, trained mice were intraperitoneally pretreated with the test compound at a dose of 100 mg/kg and just before the MES test were tested on the rotarod. Neurotoxicity was indicated by the inability of the animal to maintain equilibration on the rod for 1 min. […] Each group consisted of six animals.

[2] = test system: maximal electroshock seizures; experiment: Maximal electroshock seizure (MES) test; format: in vivo, mice; details: Mus musculus; mice, ip, 100 mg/kg, 0.5 h; read-out: MES: number of mice protected/number of mice tested (converted)
Protocol: The MES test was performed as previously described. Stimuli (25 mA, 0.2 s, 50 Hz) were generated by a constant current stimulator (Rodent shocker, Type 221, Hugo Sachs Elektronik, Germany) and delivered with the use of auricular electrodes. During the stimulation, each mouse was restrained manually, and immediately after the stimulation gently released for observation. The endpoint was the tonic extension of the hind limbs. Mice not displaying hindlimb tonic extension were considered to be protected from seizure. The initial anticonvulsant screening of the tested compounds was performed at a fixed dose of 100 mg/kg (four mice per group). […] To evaluate the ED50, at least three groups of animals were injected with various doses of tested compounds. Each group consisted of six animals.

[3] = test system: 6 Hz psychomotor seizures; experiment: 6 Hz (32 mA) psychomotor seizure test; format: in vivo, mice; details: Mus musculus, 32 mA; for responders at 100 mg/kg: mice, ip, 0.5 h, read-out: 6 Hz: number of mice protected/number of mice tested (converted)
Description: Psychomotor seizures were induced via corneal stimulation (6 Hz, 32 mA, 0.2 ms rectangular pulse width, 3 s duration) using a constant-current device (ECT Unit 57800, Ugo Basile, Italy). A drop of 1% solution of lidocaine hydrochloride was applied to the mouse corneas before stimulation to provide local anesthesia and ensure optimal current conductivity. After the electrical stimulation, mice were gently released and observed for the presence or absence of seizure activity, being characterized by immobility associated with rearing, forelimb clonus, twitching of the vibrissae, stun, and Straub-tail. Lack of the above symptoms or their cessation within 10 s from the stimulation was considered as absence of seizure activity. The initial anticonvulsant screening of the tested compounds was performed at a fixed dose of 100 mg/kg (four mice per group). Then ED50 was calculated for active compounds as described above.

[4] = test system: PTZ-induced clonic seizures; experiment: Subcutaneous pentylenetetrazole (scPTZ) seizure test; format: in vivo; details: mice, 100 mg/kg
Protocol: Clonic convulsions were induced by the subcutaneous (sc) administration of PTZ at a dose of 100 mg/kg. After PTZ injection, the mice were placed separately and observed during the next 30 min for the occurrence of clonic seizures. Clonic seizures were defined as clonus of the whole body lasting more than 3 s, with an accompanying loss of righting reflex. The latency to first clonus, the number of seizure episodes, and mortality rate were noted and compared with vehicle-treated and drug-treated groups. The absence of clonic convulsions within the observed time period was interpreted as the compound’s ability to protect against PTZ-induced seizures.

[5] = test system: Hep G2 cells; experiment: Hepatotoxicity, PrestoBlue viability assay; format: cell-based, human; details: 1–100 μM, 24 h
Protocol: Hepatotoxicity of tested compounds was assessed in PrestoBlue (Thermo Fisher Scientific, Waltham, MA, USA) Experiments on microplate reader (SpectraMax® iD3, Molecular Devices, San Jose, CA, USA) using human hepatocellular carcinoma cells (Hep G2) ATCC® […]. The cells were cultured in standard conditions (37 °C, 5% CO2), in Dulbecco’s Modified Eagle’s Medium-high glucose, (DMEM, Gibco, Thermo Fisher Scientific, Waltham, MA, USA) supplemented with 10% fetal bovine serum (Thermo Fisher Scientific, Waltham, MA, USA), with added 100 IU/mL penicillin (Sigma Aldrich, Steinheim, Germany) and 100 µg/mL streptomycin (Sigma Aldrich). PrestoBlue reagent is a resazurin-based solution that functions as a cell viability indicator. Metabolically active cells are capable of reducing the PrestoBlue reagent, with the colorimetric changes used as an indicator to quantify the viability of cells in culture. This change can be determined by measuring the fluorescence. After 24 h of incubation with the compounds PrestoBlue reagent was added to wells of a microplate. After 20 min of incubation at 37 °C, the fluorescence intensity (EX 530; EM 580 nm) was measured in a plate reader. Viability values were calculated as a percentage of live cells with respect to the control sample (DMSO). The negative control was medium without cells. Astemizole was used as a reference substance.

[6] = test system: latency time to pain reaction; experiment: Hot plate test; format: in vivo; details: mice, 5 mg/kg, p < 0.001
Protocol: The hot plate test was carried out based on the Eddy and Leimbach (1953) method. In this test, the apparatus was equipped with an electrically heated surface with a temperature controller that maintains surface temperature to a set point. Herein, the temperature was set at 55 °C. The animals were treated ip either with the test compounds, or vehicle 30 min before placing the animal on a hot plate apparatus. Latency time to pain reaction, i.e., the time until the animal licked its back paws or jumped was recorded by means of the stopwatch.

Cc1ccsc1C1CC(=O)N(CCCN2CCN(c3ccc(F)cc3)CC2)C1=O (racemic) (as salt: hydrochloride) [Compound 5, (R,S)-1-(3-(4-(4-Fluorophenyl)piperazin-1-yl)propyl)-3-(3-methylthiophen-2-yl)pyrrolidine-2,5-dione hydrochloride]
melting point: 160 to 162 °C

Cc1ccsc1C1CC(=O)N(CCCN2CCN(c3cccc(C(F)(F)F)c3)CC2)C1=O (racemic) (as salt: hydrochloride) [Compound 6, (R,S)-3-(3-Methylthiophen-2-yl)-1-(3-(4-(3-(trifluoromethyl)phenyl)piperazin-1-yl)propyl)pyrrolidine-2,5-dione hydrochloride]
melting point: 183 to 185 °C

Cc1ccsc1C1CC(=O)N(CCCN2CCN(c3cccc(Cl)c3)CC2)C1=O (racemic) (as salt: hydrochloride) [Compound 7, (R,S)-1-(3-(4-(3-Chlorophenyl)piperazin-1-yl)propyl)-3-(3-methylthiophen-2-yl)pyrrolidine-2,5-dione hydrochloride]
melting point: 181.5 to 183.5 °C

Cc1ccsc1C1CC(=O)N(CCCN2CCN(c3ccc(Cl)cc3)CC2)C1=O (racemic) (as salt: hydrochloride) [Compound 8, (R,S)-1-(3-(4-(4-Chlorophenyl)piperazin-1-yl)propyl)-3-(3-methylthiophen-2-yl)pyrrolidine-2,5-dione hydrochloride]
melting point: 68 to 70 °C

Cc1ccsc1C1CC(=O)N(CCCN2CCN(c3ccc(Cl)c(Cl)c3)CC2)C1=O (racemic) (as salt: hydrochloride) [Compound 9, (R,S)-1-(3-(4-(3,4-Dichlorophenyl)piperazin-1-yl)propyl)-3-(3-methylthiophen-2-yl)pyrrolidine-2,5-dione hydrochloride]
melting point: 101 to 103 °C

Cc1ccsc1C1CC(=O)N(CCCN2CCN(c3ccc(F)cc3)CC2)C1=O (racemic) [Compound 5, (R,S)-1-(3-(4-(4-Fluorophenyl)piperazin-1-yl)propyl)-3-(3-methylthiophen-2-yl)pyrrolidine-2,5-dione hydrochloride]
NT: number of mice with motor impairment/number of mice tested [1]: 4/4 | responders at 100 mg/kg [2]: 0% | responders at 100 mg/kg [3]: 0%

Cc1ccsc1C1CC(=O)N(CCCN2CCN(c3cccc(Cl)c3)CC2)C1=O (racemic) [Compound 7, (R,S)-1-(3-(4-(3-Chlorophenyl)piperazin-1-yl)propyl)-3-(3-methylthiophen-2-yl)pyrrolidine-2,5-dione hydrochloride]
NT: number of mice with motor impairment/number of mice tested [1]: 2/4 | responders at 100 mg/kg [2]: 0% | responders at 100 mg/kg [3]: 0%

Cc1ccsc1C1CC(=O)N(CCCN2CCN(c3ccc(Cl)cc3)CC2)C1=O (racemic) [Compound 8, (R,S)-1-(3-(4-(4-Chlorophenyl)piperazin-1-yl)propyl)-3-(3-methylthiophen-2-yl)pyrrolidine-2,5-dione hydrochloride]
NT: number of mice with motor impairment/number of mice tested [1]: 0/4 | responders at 100 mg/kg [2]: 25% | responders at 100 mg/kg [3]: 25%

Cc1ccsc1C1CC(=O)N(CC(=O)N2CCOCC2)C1=O (racemic) [Compound 10, (R,S)-3-(3-Methylthiophen-2-yl)-1-(2-morpholino-2-oxoethyl)pyrrolidine-2,5-dione]
NT: number of mice with motor impairment/number of mice tested [1]: 0/4 | responders at 100 mg/kg [2]: 0% | responders at 100 mg/kg [3]: 25% | melting point: 142 to 144 °C

Cc1ccsc1C1CC(=O)N(CC(=O)N2CCN(c3ccc(F)cc3)CC2)C1=O (racemic) [Compound 11, (R,S)-1-(2-(4-(4-Fluorophenyl)piperazin-1-yl)-2-oxoethyl)-3-(3-methylthiophen-2-yl)pyrrolidine-2,5-dione]
NT: number of mice with motor impairment/number of mice tested [1]: 0/4 | responders at 100 mg/kg [2]: 0% | responders at 100 mg/kg [3]: 0% | melting point: 165 to 166 °C

Cc1ccsc1C1CC(=O)N(CC(=O)N2CCN(c3cccc(C(F)(F)F)c3)CC2)C1=O (racemic) [Compound 12, (R,S)-3-(3-Methylthiophen-2-yl)-1-(2-oxo-2-(4-(3-(trifluoromethyl)phenyl)piperazin-1-yl)ethyl)pyrrolidine-2,5-dione]
NT: number of mice with motor impairment/number of mice tested [1]: 1/4 | responders at 100 mg/kg [2]: 0% | responders at 100 mg/kg [3]: 0% | melting point: 135 to 137 °C

Cc1ccsc1C1CC(=O)N(CC(=O)N2CCN(c3ccccc3Cl)CC2)C1=O (racemic) [Compound 13, (R,S)-1-(2-(4-(2-Chlorophenyl)piperazin-1-yl)-2-oxoethyl)-3-(3-methylthiophen-2-yl)pyrrolidine-2,5-dione]
NT: number of mice with motor impairment/number of mice tested [1]: 0/4 | responders at 100 mg/kg [2]: 0% | responders at 100 mg/kg [3]: 25% | melting point: 141 to 143 °C

Cc1ccsc1C1CC(=O)N(CC(=O)N2CCN(c3ccc(Cl)cc3)CC2)C1=O (racemic) [Compound 15, (R,S)-1-(2-(4-(4-Chlorophenyl)piperazin-1-yl)-2-oxoethyl)-3-(3-methylthiophen-2-yl)pyrrolidine-2,5-dione]
NT: number of mice with motor impairment/number of mice tested [1]: 0/4 | responders at 100 mg/kg [2]: 0% | responders at 100 mg/kg [3]: 25% | melting point: 179 to 181 °C

Cc1ccsc1C1CC(=O)N(CC(=O)N2CCN(c3cccc(Cl)c3Cl)CC2)C1=O (racemic) [Compound 16, (R,S)-1-(2-(4-(2,3-Dichlorophenyl)piperazin-1-yl)-2-oxoethyl)-3-(3-methylthiophen-2-yl)pyrrolidine-2,5-dione]
NT: number of mice with motor impairment/number of mice tested [1]: 0/4 | responders at 100 mg/kg [2]: 0% | responders at 100 mg/kg [3]: 0% | melting point: 112 to 113.5 °C

Cc1ccsc1C1CC(=O)N(CC(=O)N2CCN(c3ccc(Cl)c(Cl)c3)CC2)C1=O (racemic) [Compound 17, (R,S)-1-(2-(4-(3,4-Dichlorophenyl)piperazin-1-yl)-2-oxoethyl)-3-(3-methylthiophen-2-yl)pyrrolidine-2,5-dione]
scPTZ: effect in words [4]: no significant effect | NT: number of mice with motor impairment/number of mice tested [1]: 0/4 | responders at 100 mg/kg [2]: 0% | ED50 ([3]; mice ip, 95% confidence limit in brackets): > 150 mg/kg | responders at 100 mg/kg [3]: 50%

COc1ccc(CCN2CCC(Nc3nc4ccccc4n3Cc3ccc(F)cc3)CC2)cc1 [Astemizole, reference compound]
Hepatotoxicity in HepG2 cells, in words [5]: inhibits the viability of HepG2 cells in a dose-dependent manner

CN1CC[C@]23c4c5ccc(O)c4O[C@H]2[C@@H](O)C=C[C@H]3[C@H]1C5 [morphine, reference compound]
Hot plate: prolongation of latency time to pain reaction [6]: 74%
